Reference: patent publication US11072609B2, “Method for preparing halogenated imidazopyridine derivatives” (Bayer Aktiengesellschaft, priority 2017, dated 2021)

Tests used:
[1] = tested on: Phaedon cochleariae; test: Phaedon cochleariae - spray test; type: in vivo; conditions: application rate 100 g/ha; Chinese cabbage leaf discs, larvae; after 7 days
Protocol: Phaedon cochleariae—Spray Test
To produce a suitable active ingredient formulation, 1 part by weight of active ingredient is dissolved with the specified parts by weight of solvent and made up to the desired concentration with water containing an emulsifier concentration of 1000 ppm. To produce further test concentrations, the formulation is diluted with emulsifier-containing water.
Discs of Chinese cabbage leaves (Brassica pekinensis) are sprayed with an active ingredient formularation of the desired concentration and, after drying, populated with larvae of the mustard beetle (Phaedon cochleariae).
After 7 days, the efficacy in % is determined. 100% means that all the beetle larvae have been killed; 0% means that no beetle larvae have been killed.

[2] = tested on: Myzus persicae; test: Myzus persicae - oral test; type: in vivo; conditions: application rate 4 ppm; after 5 days; 100% = all aphids killed
Protocol: Myzus persicae—Oral Test Solvent: 100 parts by weight of acetone To produce a suitable active ingredient formulation, 1 part by weight of active ingredient is dissolved with the stated parts by weight of solvent and made up to the desired concentration with water. 50 μl of the active ingredient formulation are transferred into microtitre plates and made up to a final volume of 200 μl with 150 μl of IPL41 insect medium (33%+15% sugar). Subsequently, the plates are sealed with parafilm, which a mixed population of green peach aphids (Myzus persicae) within a second microtitre plate is able to puncture and imbibe the solution. After 5 days, the efficacy in % is determined. 100% means that all the aphids have been killed; 0% means that no aphids have been killed.

[3] = log P by HPLC on reversed-phase column (C 18), EEC Directive 79/831 Annex V.A8; type: physicochemical; conditions: reversed-phase C18 HPLC column; HPLC-MS, reversed-phase C 18, 55° C.; acidic or neutral range not stated
Protocol: The log P values are measured according to EEC Directive 79/831 Annex V.A8 by HPLC (high-performance liquid chromatography) on a reversed-phase column (C 18). Temperature: 55° C. The LC-MS determination in the acidic range is carried out at pH 2.7 using the mobile phases 0.1% aqueous formic acid and acetonitrile (contains 0.1% formic acid); linear gradient from 10% acetonitrile to 95% acetonitrile. The LC-MS determination in the neutral range is carried out at pH 7.8 using the mobile phases 0.001 molar aqueous ammonium bicarbonate solution and acetonitrile; linear gradient from 10% acetonitrile to 95% acetonitrile. Calibration is carried out using unbranched alkan-2-ones (having 3 to 16 carbon atoms) with known log P values (log P values determined on the basis of the retention times by linear interpolation between two successive alkanones).

[4] = tested on: Myzus persicae; test: Myzus persicae - spray test; type: in vivo; conditions: Chinese cabbage leaf discs, after 5 days
Protocol: Myzus persicae—Spray Test [table] To produce a suitable active ingredient formulation, 1 part by weight of active ingredient is dissolved with the specified parts by weight of solvent and made up to the desired concentration with water containing an emulsifier concentration of 1000 ppm. To produce further test concentrations, the formulation is diluted with emulsifier-containing water. Discs of Chinese cabbage leaves (Brassica pekinensis) infested by all stages of the green peach aphid (Myzus persicae) are sprayed with an active ingredient formulation of the desired concentration. After 5 days, the efficacy in % is determined. 100% means that all the aphids have been killed; 0% means that no aphids have been killed.

[5] = tested on: Spodoptera frugiperda; test: Spodoptera frugiverda - spray test; type: in vivo; conditions: application rate 100 g/ha; maize leaf discs, caterpillars; after 7 days
Protocol: Spodoptera frugiverda—Spray Test [table] To produce a suitable active ingredient formulation, 1 part by weight of active ingredient is dissolved with the specified parts by weight of solvent and made up to the desired concentration with water containing an emulsifier concentration of 1000 ppm. To produce further test concentrations, the formulation is diluted with emulsifier-containing water. Leaf discs of maize (Zea mays) are sprayed with an active ingredient formulation of the desired concentration and, after drying, populated with caterpillars of the armyworm (Spodoptera frugiperda). After 7 days, the efficacy in % is determined. 100% means that all the caterpillars have been killed; 0% means that no caterpillar has been killed.

CCS(=O)(=O)c1ccc(-n2cncn2)nc1-c1nc2cc(C(F)(F)F)nc(C#N)c2n1C [Compound No. 1, 2-[3-(ethylsulfonyl)-6-(1H-1,2,4-triazol-1-yl)pyridin-2-yl]-3-methyl-6-(trifluoromethyl)-3H-imidazo[4,5-c]pyridine-4-carbonitrile]
efficacy [1]: 83%
efficacy [2]: 100%

CCSc1ccc(Cl)nc1-c1nc2cc(C(F)(F)F)nc(I)c2n1C [Example 1, 2-[6-chloro-3-(ethylsulfanyl)pyridin-2-yl]-4-iodo-3-methyl-6-(trifluoromethyl)-3H-imidazo[4,5-c]pyridine]
chromatographic logP [3]: 4.17

CCSc1ccc(Br)nc1-c1nc2cc(C(F)(F)F)nc(I)c2n1C [Example 2, 2-[6-bromo-3-(ethylsulfanyl)pyridin-2-yl]-4-iodo-3-methyl-6-(trifluoromethyl)-3H-imidazo[4,5-c]pyridine]
chromatographic logP [3]: 4.34

CCSc1ccc(Cl)nc1-c1nc2cc(C(F)(F)F)nc(C)c2n1C [Example 3, 2-[6-chloro-3-(ethylsulfanyl)pyridin-2-yl]-3,4-dimethyl-6-(trifluoromethyl)-3H-imidazo[4,5-c]pyridine]
chromatographic logP [3]: 3.23

CCSc1ccc(Br)nc1-c1nc2cc(C(F)(F)F)nc(C)c2n1C [Example 4, 2-[6-bromo-3-(ethylsulfanyl)pyridin-2-yl]-3,4-dimethyl-6-(trifluoromethyl)-3H-imidazo[4,5-c]pyridine]
chromatographic logP [3]: 3.36

CCSc1ccc(Cl)nc1-c1nc2cc(C(F)(F)F)nc(C#N)c2n1C [Example 5, 2-[6-chloro-3-(ethylsulfanyl)pyridin-2-yl]-3-methyl-6-(trifluoromethyl)-3H-imidazo[4,5-c]pyridine-4-carbonitrile]
chromatographic logP [3]: 3.84

CCSc1ccc(Br)nc1-c1nc2cc(C(F)(F)F)nc(C#N)c2n1C [Example 6, 2-[6-bromo-3-(ethylsulfanyl)pyridin-2-yl]-3-methyl-6-(trifluoromethyl)-3H-imidazo[4,5-c]pyridine-4-carbonitrile]
chromatographic logP [3]: 3.87

CCSc1ccc(Br)nc1-c1nc2cc(C(F)(F)F)nc(Cl)c2n1C [Example 7, 2-[6-bromo-3-(ethylsulfanyl)pyridin-2-yl]-4-chloro-3-methyl-6-(trifluoromethyl)-3H-imidazo[4,5-c]pyridine]
chromatographic logP [3]: 4.18

CCS(=O)(=O)c1ccc(-n2cncn2)nc1-c1nc2cc(C(F)(F)F)nc(C)c2n1C [compound 2]
efficacy ([4]; application rate 20 g/ha): 90%
efficacy [1]: 83%
efficacy [2]: 100%

CCS(=O)(=O)c1ccc(-n2cncn2)nc1-c1nc2cc(C(F)(F)F)nc(Cl)c2n1C [compound 3]
efficacy ([4]; application rate 20 g/ha): 100%
efficacy ([4]; application rate 100 g/ha): 100%
efficacy [5]: 100%
efficacy [2]: 100%
